# Assay results published in ChEMBL document CHEMBL6153170 (J Med Chem, 2025).
# Activity calls are given as the source filed them. The rule behind the calls is not given here.
# Experiments:
# [1] = Toxicity in C57 mouse assessed as myelosuppression by measuring lymphocytes level at 20 mg/kg/day, IG administered for 14 days by heat map analysis; format: organism-based; conditions: in vivo, po, 336 h, time 14 day
# Histone deacetylase 7 = molecular target: T1, Histone deacetylase 7 (Homo sapiens, UniProt Q8WUI4); experiment: Inhibition of N-terminal GST-tagged recombinant human HDAC7 (501 to 952 residues) extracted from baculovirus expression system using Ac-Leu-Gly-Lys (Tfa)-AMC as substrate preincubated for 5 mins followed by substrate addition and measured after 30 mins by fluorescence microplate reader analysis
# T1 sequence (Q8WUI4 whole entry): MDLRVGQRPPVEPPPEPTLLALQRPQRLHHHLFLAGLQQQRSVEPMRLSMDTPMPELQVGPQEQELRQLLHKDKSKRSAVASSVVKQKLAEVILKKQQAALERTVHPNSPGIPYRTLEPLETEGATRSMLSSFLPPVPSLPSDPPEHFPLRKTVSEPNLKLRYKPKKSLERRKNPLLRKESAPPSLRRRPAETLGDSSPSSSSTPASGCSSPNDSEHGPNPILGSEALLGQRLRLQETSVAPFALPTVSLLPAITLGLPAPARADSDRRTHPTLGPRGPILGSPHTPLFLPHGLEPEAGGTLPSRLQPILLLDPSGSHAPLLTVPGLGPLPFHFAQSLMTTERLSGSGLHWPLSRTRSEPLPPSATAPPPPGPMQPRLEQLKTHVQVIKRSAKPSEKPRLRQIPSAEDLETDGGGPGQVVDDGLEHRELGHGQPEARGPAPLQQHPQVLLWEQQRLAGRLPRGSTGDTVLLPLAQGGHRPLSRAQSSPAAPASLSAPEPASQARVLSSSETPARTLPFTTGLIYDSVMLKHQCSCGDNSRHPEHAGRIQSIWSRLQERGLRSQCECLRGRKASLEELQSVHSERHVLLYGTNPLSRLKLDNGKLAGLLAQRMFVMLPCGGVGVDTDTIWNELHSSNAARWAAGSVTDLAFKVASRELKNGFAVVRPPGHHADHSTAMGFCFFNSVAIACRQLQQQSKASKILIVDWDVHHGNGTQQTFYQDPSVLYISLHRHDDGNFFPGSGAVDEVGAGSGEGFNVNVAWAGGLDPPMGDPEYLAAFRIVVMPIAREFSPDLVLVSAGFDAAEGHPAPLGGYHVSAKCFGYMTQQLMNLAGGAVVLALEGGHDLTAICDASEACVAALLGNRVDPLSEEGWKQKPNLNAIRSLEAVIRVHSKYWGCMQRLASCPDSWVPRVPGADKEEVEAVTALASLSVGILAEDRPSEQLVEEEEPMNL
# HepG2 = experiment: Cytotoxicity against human HepG2 cells assessed as reduction in cell viability at 3.3 to 10 uM incubated for 48 hrs by MTT assay; format: functional, cell-based; conditions: dose 3.3-10 µM
# B16-F10 = experiment: Downregulation of p-STAT3 expression level in mouse B16-F10 cells at 0.1 to 2 uM incubated for 24 hrs by Western blot analysis; format: functional, cell-based; conditions: dose 0.1-2 µM
# [2] = Apparent volume of distribution during terminal phase in male Sprague-Dawley rat at 2 mg/kg, iv measured after 48 hrs by triple quadrupole mass spectrometric analysis; format: ADME, organism-based; conditions: in vivo
# [3] = Toxicity in C57 mouse assessed as myelosuppression by measuring MCH level at 20 mg/kg/day, IG administered for 14 days by heat map analysis; format: organism-based; conditions: in vivo, po, 336 h, time 14 day
# [4] = Half-life in male Sprague-Dawley rat at 10 mg/kg, po measured after 48 hrs by triple quadrupole mass spectrometric analysis; format: ADME, organism-based; conditions: in vivo
# [5] = In vivo inhibition of PD-L1 in C57BL/6 mouse model implanted with mouse B16-F10 cells assessed as reduction in PD-L1 protein expression in tumor at 20 mg/kg/day, ip administered for 14 days by Western blot analysis relative to control; format: functional; conditions: C57BL/6, B16-F10, 336 h, time 14 day
# Jurkat = experiment: Effect on Histone H3 protein level in human Jurkat T cells at 0.1 to 2 uM incubated for 12 hrs by Western blot analysis; format: functional, cell-based; conditions: dose 0.1-2 µM
# [6] = AUC (0 to infinity) in male Sprague-Dawley rat at 10 mg/kg, po measured after 48 hrs by triple quadrupole mass spectrometric analysis; format: ADME, organism-based; conditions: in vivo
# [7] = molecular target: T2, Protein deacetylase HDAC6 (Mus musculus) (UniProt Q9Z2V5); experiment: In vivo inhibition of HDAC6 in C57BL/6 mouse model implanted with mouse B16-F10 cells assessed as increase in acetylated alpha-tubulin protein level in tumor at 20 mg/kg/day, ip administered for 14 days by Western blot analysis; format: functional, organism-based; conditions: time 14.0 day
# T2 sequence (whole entry): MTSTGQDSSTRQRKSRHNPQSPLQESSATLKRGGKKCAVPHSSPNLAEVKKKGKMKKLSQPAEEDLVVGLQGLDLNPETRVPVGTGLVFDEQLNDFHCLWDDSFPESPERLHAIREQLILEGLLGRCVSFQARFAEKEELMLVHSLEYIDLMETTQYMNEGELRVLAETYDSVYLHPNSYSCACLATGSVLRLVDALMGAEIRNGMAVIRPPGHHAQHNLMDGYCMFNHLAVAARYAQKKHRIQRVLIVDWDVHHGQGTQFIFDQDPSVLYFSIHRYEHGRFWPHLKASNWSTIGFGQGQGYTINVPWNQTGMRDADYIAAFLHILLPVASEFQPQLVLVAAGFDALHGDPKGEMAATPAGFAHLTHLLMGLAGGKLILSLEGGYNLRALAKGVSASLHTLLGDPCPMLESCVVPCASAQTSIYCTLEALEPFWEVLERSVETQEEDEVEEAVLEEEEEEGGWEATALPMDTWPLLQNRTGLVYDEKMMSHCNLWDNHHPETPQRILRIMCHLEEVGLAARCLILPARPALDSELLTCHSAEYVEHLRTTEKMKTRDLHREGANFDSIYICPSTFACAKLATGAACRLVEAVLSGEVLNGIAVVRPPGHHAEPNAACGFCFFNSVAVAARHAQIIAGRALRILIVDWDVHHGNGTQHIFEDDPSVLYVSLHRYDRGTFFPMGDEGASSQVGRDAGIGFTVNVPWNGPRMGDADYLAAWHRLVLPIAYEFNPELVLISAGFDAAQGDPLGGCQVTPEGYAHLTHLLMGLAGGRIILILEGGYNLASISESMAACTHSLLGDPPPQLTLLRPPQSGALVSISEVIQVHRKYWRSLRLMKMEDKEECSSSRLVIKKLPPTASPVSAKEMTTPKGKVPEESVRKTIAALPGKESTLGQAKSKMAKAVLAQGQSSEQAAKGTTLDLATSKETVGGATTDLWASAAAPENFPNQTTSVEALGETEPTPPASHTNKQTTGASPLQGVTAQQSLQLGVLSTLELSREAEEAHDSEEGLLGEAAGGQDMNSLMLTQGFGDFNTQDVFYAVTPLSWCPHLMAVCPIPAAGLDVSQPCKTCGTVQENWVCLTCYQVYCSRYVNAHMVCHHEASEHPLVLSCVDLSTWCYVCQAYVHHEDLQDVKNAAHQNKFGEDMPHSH
# [8] = Cmax in male Sprague-Dawley rat at 10 mg/kg, po measured after 48 hrs by triple quadrupole mass spectrometric analysis; format: ADME, organism-based; conditions: in vivo
compound,measurement,setting,value
COc1nc(-c2cccc(-c3ccccc3)c2C)ccc1CNCCCCCCC(=O)NO,Activity,[1],Non-toxic
same,IC50,Histone deacetylase 7,> 100 µM
same,Activity,HepG2,Active; Mild Cytotoxicity Observed
same,Activity,B16-F10,Active
same,Vz/F,[2],8.99 L/kg
same,Activity,[3],Non-toxic
same,half-life,[4],13.2 h
same,inhibition in vivo at 20 mg/kg/day,[5],~68%
same,Activity,Jurkat,inactive
same,AUC,[6],1076.36 ng·h/mL
same,inhibition,[7],Active
same,Cmax,[8],194 ng/mL
